{"source": "ChEMBL document CHEMBL1140974", "about": "“Synthesis and antimalarial activity of semicarbazone and thiosemicarbazone derivatives” (Eur J Med Chem, 2008)", "key": {"Plasmodium falciparum [1]": {"test_system": "Plasmodium falciparum", "experiment": "Antimalarial activity against chloroquine-resistant Plasmodium falciparum W2 in human erythrocytes at 20 ug/mL by [3H]hypoxanthine uptake", "type": "functional"}, "PBMC [2]": {"test_system": "PBMC", "experiment": "Antiproliferative activity against PHA-stimulated human PBMC at 20 ug/mL after 72 hrs by MTT assay relative to control", "type": "cell-based"}, "PBMC [3]": {"test_system": "PBMC", "experiment": "Antiproliferative activity against PHA-stimulated human PBMC after 72 hrs by MTT assay", "type": "cell-based"}, "Plasmodium falciparum [4]": {"test_system": "Plasmodium falciparum", "experiment": "Antimalarial activity against chloroquine-resistant Plasmodium falciparum W2 in human erythrocytes by [3H]hypoxanthine uptake", "type": "functional, organism-based"}, "Plasmodium berghei [5]": {"test_system": "Plasmodium berghei", "experiment": "Antiplasmodial activity after 5 days as reduced parasitaemia in Plasmodium berghei NK65 infected BALB/c mice (Mus musculus) at 5 mg/kg/day for 4 days", "type": "functional", "set-up": "scale not given: the % may be the effect or the level left"}, "Plasmodium berghei [6]": {"test_system": "Plasmodium berghei", "experiment": "Antiplasmodial activity as reduced parasitaemia after 5 day sin Plasmodium berghei NK65 infected BALB/c mice (Mus musculus) at 10 mg/kg/day over 4 days", "type": "functional", "set-up": "scale not given: the % may be the effect or the level left"}, "Plasmodium berghei [7]": {"test_system": "Plasmodium berghei", "experiment": "Antiplasmodial activity as reduced parasitaemia after 5 days in Plasmodium berghei NK65 infected BALB/c mice (Mus musculus) at 20 mg/kg/day over 4 days", "type": "functional", "set-up": "scale not given: the % may be the effect or the level left"}, "Plasmodium berghei [8]": {"test_system": "Plasmodium berghei", "experiment": "Antiplasmodial activity as reduced parasitaemia after 5 days in Plasmodium berghei NK65 infected BALB/c mice (Mus musculus) at 15 mg/kg/day over 4 days", "type": "functional", "set-up": "scale not given: the % may be the effect or the level left"}, "Plasmodium berghei [9]": {"test_system": "Plasmodium berghei", "experiment": "Antiplasmodial activity as reduced parasitaemia after 7 days in Plasmodium berghei NK65 infected BALB/c mice (Mus musculus) at 5 mg/kg/day over 4 days", "type": "functional", "set-up": "scale not given: the % may be the effect or the level left"}, "Plasmodium berghei [10]": {"test_system": "Plasmodium berghei", "experiment": "Antiplasmodial activity as reduced parasitaemia after 7 days in Plasmodium berghei NK65 infected BALB/c mice (Mus musculus) at 10 mg/kg/day over 4 days", "type": "functional", "set-up": "scale not given: the % may be the effect or the level left"}, "Plasmodium berghei [11]": {"test_system": "Plasmodium berghei", "experiment": "Antiplasmodial activity as reduced parasitaemia after 7 days in Plasmodium berghei NK65 infected BALB/c mice (Mus musculus) at 20 mg/kg/day over 4 days", "type": "functional", "set-up": "scale not given: the % may be the effect or the level left"}, "Plasmodium berghei [12]": {"test_system": "Plasmodium berghei", "experiment": "Antiplasmodial activity as reduced parasitaemia after 7 days in Plasmodium berghei NK65 infected BALB/c mice (Mus musculus) at 15 mg/kg/day over 4 days", "type": "functional", "set-up": "scale not given: the % may be the effect or the level left"}}, "note": "pIC50: −log10 of the molar value. The source made the active and inactive calls. The rule behind the calls is not given here.", "data": [{"compound": "CC/C(=N/NC(N)=O)C(C)CC=C(C)C", "note": "(stereo not drawn)", "values": [{"measurement": "Activity", "setting": "Plasmodium falciparum [1]", "value": "inactive"}, {"measurement": "Activity", "setting": "PBMC [2]", "value": 0, "unit": "%"}]}, {"compound": "COc1cc(/C=N/NC(N)=S)cc(OC)c1OC", "values": [{"measurement": "Activity", "setting": "Plasmodium falciparum [1]", "value": "inactive"}, {"measurement": "Activity", "setting": "PBMC [2]", "value": 78, "unit": "%"}]}, {"compound": "CC(C)=CCC/C(C)=N\\NC(N)=O", "values": [{"measurement": "Activity", "setting": "Plasmodium falciparum [1]", "value": "inactive"}, {"measurement": "Activity", "setting": "PBMC [2]", "value": 107, "unit": "%"}]}, {"compound": "CN(C)c1ccc(/C=N/NC(N)=O)cc1", "values": [{"measurement": "Activity", "setting": "Plasmodium falciparum [1]", "value": "inactive"}, {"measurement": "Activity", "setting": "PBMC [2]", "value": 84, "unit": "%"}]}, {"compound": "CC(C)=CCC/C(C)=N\\NC(N)=S", "values": [{"measurement": "pIC50", "setting": "PBMC [3]", "value": 4.45}, {"measurement": "pIC50", "setting": "Plasmodium falciparum [4]", "value": 4.90}, {"measurement": "inhibition at 20 µg/mL", "setting": "Plasmodium falciparum [1]", "value": 100, "unit": "%"}, {"measurement": "Activity", "setting": "PBMC [2]", "value": 98, "unit": "%"}]}, {"compound": "COc1ccc(/C=N/NC(N)=S)cc1", "values": [{"measurement": "Activity", "setting": "Plasmodium falciparum [1]", "value": "inactive"}, {"measurement": "Activity", "setting": "PBMC [2]", "value": 90, "unit": "%"}]}, {"compound": "CC/C(=N/NC(N)=S)C(C)CC=C(C)C", "note": "(stereo not drawn)", "values": [{"measurement": "pIC50", "setting": "PBMC [3]", "value": 4.50}, {"measurement": "pIC50", "setting": "Plasmodium falciparum [4]", "value": 5.04}, {"measurement": "inhibition at 20 µg/mL", "setting": "Plasmodium falciparum [1]", "value": 99, "unit": "%"}, {"measurement": "Activity", "setting": "PBMC [2]", "value": 60, "unit": "%"}]}, {"compound": "CC1(C)C2CC=C(/C=N/NC(N)=S)C1C2", "note": "(stereo not drawn)", "values": [{"measurement": "pIC50", "setting": "PBMC [3]", "value": 4.13}, {"measurement": "pIC50", "setting": "Plasmodium falciparum [4]", "value": 5.14}, {"measurement": "inhibition at 20 µg/mL", "setting": "Plasmodium falciparum [1]", "value": 95, "unit": "%"}, {"measurement": "Activity", "setting": "PBMC [2]", "value": 76, "unit": "%"}, {"measurement": "Activity", "setting": "Plasmodium berghei [5]", "value": 0, "unit": "%"}, {"measurement": "Activity", "setting": "Plasmodium berghei [6]", "value": 36, "unit": "%"}, {"measurement": "Activity", "setting": "Plasmodium berghei [7]", "value": 77.5, "unit": "%"}, {"measurement": "Activity", "setting": "Plasmodium berghei [8]", "value": 93, "unit": "%"}, {"measurement": "Activity", "setting": "Plasmodium berghei [9]", "value": 8, "unit": "%"}, {"measurement": "Activity", "setting": "Plasmodium berghei [10]", "value": 32, "unit": "%"}, {"measurement": "Activity", "setting": "Plasmodium berghei [11]", "value": 61, "unit": "%"}, {"measurement": "Activity", "setting": "Plasmodium berghei [12]", "value": 94.5, "unit": "%"}]}, {"compound": "CCCC/C(CC)=N\\NC(N)=O", "values": [{"measurement": "Activity", "setting": "Plasmodium falciparum [1]", "value": "inactive"}, {"measurement": "Activity", "setting": "PBMC [2]", "value": 89, "unit": "%"}]}, {"compound": "CCN(CC)CCCC(C)Nc1ccnc2cc(Cl)ccc12", "note": "(stereo not drawn) [CHLOROQUINE]", "values": [{"measurement": "pIC50", "setting": "PBMC [3]", "value": 5.29}]}, {"compound": "CC1(C)C2CC=C(/C=N/NC(N)=O)C1C2", "note": "(stereo not drawn)", "values": [{"measurement": "Activity", "setting": "Plasmodium falciparum [1]", "value": "inactive"}, {"measurement": "Activity", "setting": "PBMC [2]", "value": 110, "unit": "%"}]}, {"compound": "COc1cc(/C=N/NC(N)=O)ccc1O", "values": [{"measurement": "Activity", "setting": "Plasmodium falciparum [1]", "value": "inactive"}, {"measurement": "Activity", "setting": "PBMC [2]", "value": 116, "unit": "%"}]}, {"compound": "COc1cc(/C=N/NC(N)=O)cc(OC)c1OC", "values": [{"measurement": "Activity", "setting": "Plasmodium falciparum [1]", "value": "inactive"}, {"measurement": "Activity", "setting": "PBMC [2]", "value": 107, "unit": "%"}]}, {"compound": "COc1ccc(/C=N/NC(N)=O)cc1OC", "values": [{"measurement": "inhibition at 20 µg/mL", "setting": "Plasmodium falciparum [1]", "value": 32, "unit": "%"}, {"measurement": "Activity", "setting": "PBMC [2]", "value": 80, "unit": "%"}]}, {"compound": "COc1ccc(/C=N/NC(N)=O)cc1", "values": [{"measurement": "inhibition at 20 µg/mL", "setting": "Plasmodium falciparum [1]", "value": 38, "unit": "%"}, {"measurement": "Activity", "setting": "PBMC [2]", "value": 141, "unit": "%"}]}]}
